Laboratory results reported in patent publication US20240368125A1, “NOVEL PYRAZINYL-TRIAZOLE COMPOUNDS AS PESTICIDES” (Bayer Aktiengesellschaft, priority 2021, published 2024).

What was measured:
Assay type in all cases: in vivo
[1] = test system: adult unfed cat fleas (Ctenocephalides felis); test: Ctenocephalides felis oral test; details: 48 h, 100 ppm in citrated cattle blood, after 2 days
Procedure: Ctenocephalides felis—Oral Test
(§1) Solvent: Dimethyl Sulfoxide
To produce a suitable preparation of active compound, 10 mg of active compound are dissolved in 0.5 mL solvent, and the concentrate is diluted with citrated cattle blood to the desired concentration.
Approximately 20 adult unfed cat fleas (Ctenocephalides felis) are placed in a flea chamber whose top and bottom is covered with gauze. A chamber whose bottom is sealed with parafilm, is filled with the blood-compound solution and placed on top of the flea chamber, so that the fleas can suck the blood. The blood chamber is heated to 37° C. whereas the flea chamber is kept at room temperature.
After 2 days mortality in % is determined. 100% means all the fleas have been killed; 0% means none of the fleas have been killed.

[2] = test system: adult flies Musca domestica strain WHO-N; test: Musca domestica test (MUSCDO surface treatment & contact assay); details: 24 hours after contact, read-out: efficacy (mortality); for mortality at 4 mg/m2: surface concentration 4 mg/m^2, 30 min exposure; for mortality at 20 mg/m2: surface concentration 20 mg/m^2, 30 min exposure
Procedure: Musca domestica Test (MUSCDO Surface Treatment & Contact Assay
(§2) Solvent: Aceton+2000 ppm rapeseed oil methyl ester (RME)
In order to produce a sufficient, active ingredient containing solution it is necessary to solve the test compound in the solvent-mix (acetone at 2 mg/ml/RME 2000 ppm). This solution is pipetted onto a glazed tile and after evaporation of the acetone, adult flies of the species Musca domestica strain WHO-N are placed onto the dried surface. The exposure time is 30 minutes. Mortality in percent (%) is determined 24 hours after contact of the insects to the treated surface. 100% mortality means that all tested insects are dead, whereas 0% means that no insect died.

[3] = test system: brown planthopper (Nilaparvata lugens); test: Nilaparvata lugens spray test; details: Nilaparvata lugens, in Oryza sativa, 96 h
Method in brief: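 Compound dissolved in acetone/dimethylformamide and diluted in water with 1000 ppm alkylarylpolyglycol ether emulsifier. Rice plants sprayed at the test concentration, then infested with brown planthopper; % mortality read after 4 days (100% = all killed, 0% = none).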

[4] = test system: adult Blattella germanica strain PAULINIA; test: Blattella germanica test (BLTTGE surface treatment & contact assay); details: 24 hours after contact, read-out: efficacy (mortality); for mortality at 4 mg/m2: surface concentration 4 mg/m^2, 30 min exposure; for mortality at 20 mg/m2: surface concentration 20 mg/m^2, 30 min exposure
Procedure: Blattella germanica Test (BLTTGE Surface Treatment & Contact Assay
as §2
In order to produce a sufficient, active ingredient containing solution it is necessary to solve the test compound in the solvent-mix (acetone at 2 mg/ml/RME 2000 ppm). This solution is pipetted onto a glazed tile and after evaporation of the acetone, adult animals of the species Blattella germanica strain PAULINIA are placed onto the dried surface. The exposure time is 30 minutes.
Mortality in percent (%) is determined 24 hours after contact of the insects to the treated surface. 100% mortality means that all tested insects are dead, whereas 0% means that no insect died.

[5] = test system: Rhipicephalus (Boophilus) microplus larvae (strain Parkhurst, resistant against synthetic pyrethroids); test: Rhipicephalus (Boophilus) microplus in-vitro contact test, larval cattle tick; details: Rhipicephalus microplus; 1 μg/cm^2 (=100 g/ha), after 48 hours; read-out: efficacy (larvae dead or moribund)
Method in brief: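 Compound in acetone coated on glass tube inner walls; 900 ppm solution gives 5 μg/cm^2. Pyrethroid-resistant Parkhurst larvae (20-50 per tube) held at 27° C., 85% relative humidity; efficacy assessed after 48 h by scoring negative geotactic behavior after tapping larvae to tube bottom.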

[6] = test system: adult engorged female ticks (Rhipicephalus microplus); test: Rhipicephalus (Boophilus) microplus injection test; details: 4 μg/tick, after 7 days
Procedure: Rhipicephalus (Boophilus) Microplus—Injection Test
as §1
To produce a suitable preparation of active compound, 10 mg of active compound are dissolved in 0.5 mL solvent, and the concentrate is diluted with solvent to the desired concentration.
Five adult engorged female ticks (Rhipicephalus microplus) are injected with 1 μL compound solution into the abdomen. The ticks are transferred into replica plates and incubated in a climate chamber.
After 7 days egg deposition of fertile eggs is monitored. Eggs where fertility is not visible are stored in a climate chamber till hatching after about 42 days. An efficacy of 100% means all eggs are infertile; 0% means all eggs are fertile.

[7] = test system: green peach aphid (Myzus persicae); test: Myzus persicae spray test (MYZUPE); details: in Brassica rapa, foliar, 120 h
Method in brief: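 Chinese cabbage leaf disks infested with all instars of M. persicae sprayed with compound (acetone/DMF solvent, water with 1000 ppm alkylarylpolyglycol ether emulsifier) at the desired concentration. Percent mortality determined after 5 days; 100% = all aphids killed.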

[8] = test system: larvae of the banded cucumber beetle (Diabrotica balteata); test: Diabrotica balteata spray test; details: Diabrotica balteata, 168 h; 100 g/ha (=32 μg/well), wheat seeds, after 7 days; read-out: efficacy (seedlings grown)
Method in brief: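 Germinated wheat seedlings (5 per well, on agar) sprayed with compound in acetone/DMF with emulsifier-containing water, then infested with 10–20 Diabrotica balteata larvae. Efficacy (%) scored after 7 days from seedling growth: 100% = growth as untreated uninfested control, 0% = no seedlings grown.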

With `CNC(=O)c1cnc(-n2ncnc2[C@H](C)NC(=O)c2cc(C(F)(F)F)cc(C(F)(F)F)c2)cn1` [Example I-009] the mortality at 100 ppm [1] was 100%, the mortality at 4 mg/m2 [2] was 80 to 100% and the mortality at 20 mg/m2 [2] was 80 to 100%. For the same compound, the mortality at 500 g/ha [3] was 100%, the mortality at 4 mg/m2 [4] was 80 to 100% and the mortality at 20 mg/m2 [4] was 80 to 100%. For the same compound, the pest or weed control at 1 µg/cm2 [5] was 100%, the “efficacy (infertile eggs)” value [6] was 100% and the mortality at 100 g/ha [7] was 90%.
`CNC(=O)c1cnc(-n2ncnc2[C@H](C)NC(=O)c2cc(OC(F)(F)F)cc(C3CC3)c2)cn1` [Example I-021] was tested, and the mortality at 4 mg/m2 [2] was 80 to 100%, the mortality at 20 mg/m2 [2] was 80 to 100% and the mortality at 500 g/ha [3] was 100%. For the same compound, the mortality at 4 mg/m2 [4] was 80 to 100%, the mortality at 20 mg/m2 [4] was 80 to 100% and the pest or weed control at 1 µg/cm2 [5] was 100%. For the same compound, the mortality at 100 g/ha [7] was 90% and the pest or weed control at 32 µg/disc, 100 g/ha [8] was 100%.
Work on `C[C@H](NC(=O)c1cc(C(F)(F)F)cc(C(F)(F)F)c1)c1ncnn1-c1cnc(C(=O)N(C)C2CC2)cn1` [Example I-007] yielded a mortality at 100 ppm [1] of 100%, a mortality at 4 mg/m2 [2] of 80 to 100% and a mortality at 20 mg/m2 [2] of 80 to 100%. For the same compound, the mortality at 500 g/ha [3] was 100%, the mortality at 4 mg/m2 [4] was 80 to 100% and the mortality at 20 mg/m2 [4] was 80 to 100%. The pest or weed control at 1 µg/cm2 [5] was 100%, the “efficacy (infertile eggs)” value [6] was 100% and the mortality at 100 g/ha [7] was 90%. The pest or weed control at 32 µg/disc, 100 g/ha [8] was 100%.
Compound `C[C@H](NC(=O)c1cc(C(F)(F)F)cc(C(F)(F)F)c1)c1ncnn1-c1cnc(C(=O)N(C)CC2CC2)cn1` [Example I-008] has a mortality at 100 ppm [1] of 100%, a mortality at 4 mg/m2 [2] of 80 to 100% and a mortality at 20 mg/m2 [2] of 80 to 100%. For the same compound, the mortality at 500 g/ha [3] was 100%, the mortality at 4 mg/m2 [4] was 80 to 100% and the mortality at 20 mg/m2 [4] was 80 to 100%. The pest or weed control at 1 µg/cm2 [5] was 100%, the “efficacy (infertile eggs)” value [6] was 100% and the mortality at 100 g/ha [7] was 90%. It also gave a pest or weed control at 32 µg/disc, 100 g/ha [8] of 100%.
`C[C@H](NC(=O)c1cc(OC(F)(F)F)cc(C2CC2)c1)c1ncnn1-c1cnc(C(=O)N(C)C)cn1` [Example I-002] was tested, and the mortality at 100 ppm [1] was 100%, the mortality at 20 mg/m2 [2] was 80 to 100% and the mortality at 500 g/ha [3] was 90%. For the same compound, the mortality at 20 mg/m2 [4] was 80 to 100%, the pest or weed control at 1 µg/cm2 [5] was 100% and the “efficacy (infertile eggs)” value [6] was 100%. For the same compound, the mortality at 100 g/ha [7] was 90% and the pest or weed control at 32 µg/disc, 100 g/ha [8] was 100%.
